Measured values reported in ChEMBL document CHEMBL1201862, “PubChem BioAssay data set” (2004).
Each block holds one compound with its values, some of them ahead of it. Calls of active or inactive are those of the source.

How the values were obtained:
Albumin = Albumin (Bos taurus, UniProt P02769); test: Counterscreen for inhibitors of T-cell receptor (TCR)-CD3 interaction: Fluorescence-based biochemical high throughput dose response assay to identify inhibitors of T-cell receptor (TCR)-CD3 interaction using a TAMRA-labeled BSA probe.; format: functional
[1] = Counterscreen for AddAB inhibitors: absorbance-based bacterial cell-based high throughput dose response assay for inhibitors of bacterial viability. [Related pubchem assays (depositor defined):AID435030, AID449728, AID449731, AID488942, AID488955, AID488956]; format: functional
SUMO-activating enzyme = SUMO-activating enzyme (Homo sapiens, UniProt Q9UBT2); test: SUMOylation inhibitor hit validation, confirmation, SUMOylation inhibitor project, biochemical, AlphaScreen (AID 2018); format: functional
Exodeoxyribonuclease V = target: T1, Exodeoxyribonuclease V (Escherichia coli (strain K12), UniProt P04993+P07648+P08394); test: E. coli RecBCD inhibitors, dose response, counter-screen for AddAB inhibitor project, absorbance, V66 E. coli, mutant T4 phage (AID 492957); format: functional, cell-based, Escherichia coli str. K-12 substr. MG1655
T1 sequence (P04993 whole entry): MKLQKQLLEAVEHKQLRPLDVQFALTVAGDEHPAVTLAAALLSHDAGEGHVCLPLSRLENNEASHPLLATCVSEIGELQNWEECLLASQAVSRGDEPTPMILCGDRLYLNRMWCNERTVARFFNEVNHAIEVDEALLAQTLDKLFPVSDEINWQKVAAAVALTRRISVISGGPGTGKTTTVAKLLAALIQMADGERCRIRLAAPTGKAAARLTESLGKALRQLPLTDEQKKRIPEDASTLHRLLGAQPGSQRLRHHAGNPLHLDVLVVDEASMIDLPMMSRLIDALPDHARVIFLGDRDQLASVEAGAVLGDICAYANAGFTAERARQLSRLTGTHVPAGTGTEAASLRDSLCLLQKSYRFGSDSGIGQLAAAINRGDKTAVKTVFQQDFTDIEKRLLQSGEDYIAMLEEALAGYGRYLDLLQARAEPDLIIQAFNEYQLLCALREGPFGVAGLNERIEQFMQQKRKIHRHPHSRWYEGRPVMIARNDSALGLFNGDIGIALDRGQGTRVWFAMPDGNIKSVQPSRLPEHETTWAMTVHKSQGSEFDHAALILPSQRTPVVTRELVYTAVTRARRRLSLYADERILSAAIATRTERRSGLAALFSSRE
T1 sequence (P07648 whole entry): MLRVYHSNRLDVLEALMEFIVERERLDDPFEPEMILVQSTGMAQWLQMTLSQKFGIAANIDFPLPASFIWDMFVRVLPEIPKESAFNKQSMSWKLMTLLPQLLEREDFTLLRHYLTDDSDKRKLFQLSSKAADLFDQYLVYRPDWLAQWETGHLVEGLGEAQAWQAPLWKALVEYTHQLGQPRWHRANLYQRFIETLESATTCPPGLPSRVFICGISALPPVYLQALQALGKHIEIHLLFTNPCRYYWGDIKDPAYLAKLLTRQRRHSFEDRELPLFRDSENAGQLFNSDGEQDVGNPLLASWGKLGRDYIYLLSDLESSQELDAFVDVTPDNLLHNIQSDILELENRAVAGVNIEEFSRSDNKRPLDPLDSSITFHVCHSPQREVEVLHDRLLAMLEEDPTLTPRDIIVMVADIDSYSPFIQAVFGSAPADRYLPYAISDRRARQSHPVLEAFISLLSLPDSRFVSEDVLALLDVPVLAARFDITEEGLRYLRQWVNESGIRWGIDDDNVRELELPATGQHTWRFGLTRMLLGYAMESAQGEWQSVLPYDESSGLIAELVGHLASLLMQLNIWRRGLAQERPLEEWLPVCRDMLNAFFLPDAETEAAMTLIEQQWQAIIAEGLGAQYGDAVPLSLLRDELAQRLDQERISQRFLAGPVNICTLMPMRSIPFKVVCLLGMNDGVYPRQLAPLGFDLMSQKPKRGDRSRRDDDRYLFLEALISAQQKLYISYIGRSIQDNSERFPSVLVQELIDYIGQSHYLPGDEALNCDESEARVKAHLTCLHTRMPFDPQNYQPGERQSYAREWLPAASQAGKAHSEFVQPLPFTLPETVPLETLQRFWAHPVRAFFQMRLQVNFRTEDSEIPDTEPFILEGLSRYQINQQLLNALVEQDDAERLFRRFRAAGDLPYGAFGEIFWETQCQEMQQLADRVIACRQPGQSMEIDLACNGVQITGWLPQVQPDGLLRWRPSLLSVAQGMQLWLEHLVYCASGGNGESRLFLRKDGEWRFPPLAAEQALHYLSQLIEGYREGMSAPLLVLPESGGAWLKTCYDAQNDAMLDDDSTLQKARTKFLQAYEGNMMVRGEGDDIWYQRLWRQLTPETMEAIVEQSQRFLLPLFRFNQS
T1 sequence (P08394 whole entry): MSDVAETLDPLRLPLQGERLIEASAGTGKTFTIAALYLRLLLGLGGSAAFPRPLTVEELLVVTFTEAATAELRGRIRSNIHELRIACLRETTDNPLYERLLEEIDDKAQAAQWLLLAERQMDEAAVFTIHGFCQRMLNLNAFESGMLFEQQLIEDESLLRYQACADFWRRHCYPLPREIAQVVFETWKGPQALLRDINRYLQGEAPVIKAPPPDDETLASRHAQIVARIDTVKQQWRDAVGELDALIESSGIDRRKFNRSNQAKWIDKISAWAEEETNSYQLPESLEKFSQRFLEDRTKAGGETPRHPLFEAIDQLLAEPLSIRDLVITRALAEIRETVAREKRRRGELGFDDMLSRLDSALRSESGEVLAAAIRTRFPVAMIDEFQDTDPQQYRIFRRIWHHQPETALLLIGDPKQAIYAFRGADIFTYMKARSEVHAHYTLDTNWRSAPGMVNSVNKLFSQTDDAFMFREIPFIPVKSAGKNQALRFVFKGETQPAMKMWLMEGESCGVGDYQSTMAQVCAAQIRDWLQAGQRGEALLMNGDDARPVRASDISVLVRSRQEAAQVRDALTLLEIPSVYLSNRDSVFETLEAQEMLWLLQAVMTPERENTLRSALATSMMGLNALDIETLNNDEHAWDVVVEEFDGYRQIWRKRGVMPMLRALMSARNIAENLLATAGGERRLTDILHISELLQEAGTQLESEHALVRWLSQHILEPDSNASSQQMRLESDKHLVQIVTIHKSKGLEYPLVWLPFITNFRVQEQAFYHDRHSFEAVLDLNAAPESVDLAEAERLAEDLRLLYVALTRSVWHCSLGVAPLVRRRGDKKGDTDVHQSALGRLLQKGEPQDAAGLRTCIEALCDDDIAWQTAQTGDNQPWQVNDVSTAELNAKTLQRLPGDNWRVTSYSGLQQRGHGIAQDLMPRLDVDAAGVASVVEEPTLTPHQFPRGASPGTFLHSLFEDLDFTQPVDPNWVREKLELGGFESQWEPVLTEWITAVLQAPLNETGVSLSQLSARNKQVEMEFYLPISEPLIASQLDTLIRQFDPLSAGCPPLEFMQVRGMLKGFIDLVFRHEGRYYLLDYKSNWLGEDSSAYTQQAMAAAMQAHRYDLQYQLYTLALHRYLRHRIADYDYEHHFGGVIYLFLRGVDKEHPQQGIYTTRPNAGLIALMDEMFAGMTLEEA

[2] = control 3'UTR Renilla luciferase suppression, dose response, counter-screen for Shn3 inhibitor project, cell-based, Clone20-Shn3RL, cherry-picked (AID 624133); format: functional
Cannabinoid receptor 2 [3] = target: T2, Cannabinoid receptor 2 (Homo sapiens, UniProt P34972); test: SAR analysis of antagonists of the Cannabinoid Receptor 2 using an Image-Based Assay - Set 3. [Related pubchem assays (depositor defined):AID2013, AID2026]; format: functional
Cannabinoid receptor 2 [4] = target: T2, Cannabinoid receptor 2; test: SAR analysis of agonists of the Cannabinoid Receptor 2 using an Image-Based Assay - Set 3. [Related pubchem assays (depositor defined):AID2013, AID2026]; format: functional
[5] = target: T3, G-protein coupled receptor 55 (Homo sapiens, UniProt Q9Y2T6); test: GPR55 antagonists blocking LPI-driven arrestin recruitment, primary screen, imaging, U2OS, beta-arrestin-GFP, LPI agonist (AID 2013); format: functional;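 note: antagonist potency measured as reduced agonist-driven arrestin aggregation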
INS1 = test: beta cell apoptosis inhibitors, cytokine rescue, dose response, luminescence, retest (AID 449756); format: functional, cell-based; details: Rattus norvegicus;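 note: cell death triggered by IL-1 beta plus TNF-alpha plus IFN-gamma mixture; protective hits raise ATP signal compared with cytokine alone wells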
Cannabinoid receptor 1 [6] = target: T4, Cannabinoid receptor 1 (Homo sapiens, UniProt P21554); test: SAR analysis of antagonists of the Cannabinoid Receptor 1 using an Image-Based Assay - Set 4. [Related pubchem assays (depositor defined):AID2013, AID2026]; format: functional
[7] = target: T5, G-protein coupled receptor 35 (Homo sapiens, UniProt Q9HC97); test: SAR analysis of Antagonists of the GPR35 Receptor using an Image-Based Assay - Set 3. [Related pubchem assays (depositor defined):AID2013, AID2026]; format: functional
Cannabinoid receptor 1 [8] = target: T4, Cannabinoid receptor 1; test: SAR analysis of agonists of the Cannabinoid Receptor 1 using an Image-Based Assay - Set 2. [Related pubchem assays (depositor defined):AID2013, AID2026]; format: functional
Cannabinoid receptor 2 [9] = target: T2, Cannabinoid receptor 2; test: SAR analysis of agonists of the Cannabinoid Receptor 2 using an Image-Based Assay. [Related pubchem assays (depositor defined):AID2013, AID2026]; format: functional
[10] = target: T3, G-protein coupled receptor 55; test: GPR55 antagonist potency of analogs, SAR follow-up, imaging, U2OS, beta-arrestin-GFP, LPI agonist, set 2 (AID 2820); format: functional
Cannabinoid receptor 1 [11] = target: T4, Cannabinoid receptor 1; test: SAR analysis of antagonists of the Cannabinoid Receptor 1 using an Image-Based Assay - Set 2. [Related pubchem assays (depositor defined):AID2013, AID2026]; format: functional
[12] = Shn3 3'UTR reporter inhibitors, dose response, cell-based, Clone20 osteoblasts, firefly luciferase, cherry-picked (AID 624132); format: functional;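 note: firefly luciferase luminescence from reporter carrying the Shn3 3'UTR in osteoblasts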
[13] = target: T5, G-protein coupled receptor 35; test: SAR analysis of Agonists of the GPR35 Receptor using an Image-Based Assay - Set 2. [Related pubchem assays (depositor defined):AID2013, AID2026]; format: functional
[14] = target: T3, G-protein coupled receptor 55; test: SAR Analysis of Selective Antagonists of GPR55 using an Image-Based Assay - Set 4. [Related pubchem assays (depositor defined):AID2013, AID2026]; format: functional
Cannabinoid receptor 2 [15] = target: T2, Cannabinoid receptor 2; test: SAR analysis of antagonists of the Cannabinoid Receptor 2 using an Image-Based Assay. [Related pubchem assays (depositor defined):AID2013, AID2026]; format: functional
[16] = HepG2 cell cytotoxicity, dose response, cytotoxicity control for Shn3 inhibitor project, CellTiter-Glo, cherry-picked (AID 624134); format: functional, cell-based
[17] = target: T6, E3 ubiquitin-protein ligase XIAP (Homo sapiens, UniProt P98170); test: SAR analysis of Antagonists of IAP-family anti-apoptotic proteins. [Related pubchem assays (depositor defined):AID1018, AID1449, AID1513, AID1514, AID1638]
[18] = target: T6, E3 ubiquitin-protein ligase XIAP; test: SAR analysis of Antagonists of XIAP-Bir3 domain of IAP-family anti-apoptotic proteins. [Related pubchem assays (depositor defined):AID1018, AID1449, AID1513, AID1514, AID1638]
[19] = target: T7, Alkaline phosphatase, tissue-nonspecific isozyme (Homo sapiens, UniProt P05186); test: TNAP enzyme activators, dose response, selectivity assay for mouse IAP activator project, biochemical, TNAP isozyme, mouse IAP uHTS hits (AID 488880); format: functional
T7 sequence (P05186 whole entry): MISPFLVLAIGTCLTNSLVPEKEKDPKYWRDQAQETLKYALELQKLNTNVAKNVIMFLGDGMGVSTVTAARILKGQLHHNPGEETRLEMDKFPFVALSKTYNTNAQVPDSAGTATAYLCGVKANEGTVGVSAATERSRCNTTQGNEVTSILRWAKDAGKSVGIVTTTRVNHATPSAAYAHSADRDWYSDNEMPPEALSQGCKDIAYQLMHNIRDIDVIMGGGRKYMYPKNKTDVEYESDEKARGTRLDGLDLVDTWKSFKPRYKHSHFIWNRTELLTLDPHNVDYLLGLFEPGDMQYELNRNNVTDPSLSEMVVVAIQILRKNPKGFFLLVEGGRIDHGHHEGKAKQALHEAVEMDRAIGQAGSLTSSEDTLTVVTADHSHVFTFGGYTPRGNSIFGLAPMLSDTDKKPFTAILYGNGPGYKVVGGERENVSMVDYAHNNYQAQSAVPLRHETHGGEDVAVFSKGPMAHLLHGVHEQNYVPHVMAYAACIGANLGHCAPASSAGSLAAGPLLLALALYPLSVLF

[20] = target: Intestinal-type alkaline phosphatase (Mus musculus, UniProt P24822); test: mouse intestinal alkaline phosphatase activators, dose response, biochemical, luminescence, uHTS hits (AID 488783); format: functional
[21] = target: Intestinal-type alkaline phosphatase (Homo sapiens, UniProt P09923); test: activation of human intestinal alkaline phosphatase – biochemical, dose response (AID 488873); format: functional
Sequence of Intestinal-type alkaline phosphatase (Homo sapiens, UniProt P09923) (P09923 whole entry): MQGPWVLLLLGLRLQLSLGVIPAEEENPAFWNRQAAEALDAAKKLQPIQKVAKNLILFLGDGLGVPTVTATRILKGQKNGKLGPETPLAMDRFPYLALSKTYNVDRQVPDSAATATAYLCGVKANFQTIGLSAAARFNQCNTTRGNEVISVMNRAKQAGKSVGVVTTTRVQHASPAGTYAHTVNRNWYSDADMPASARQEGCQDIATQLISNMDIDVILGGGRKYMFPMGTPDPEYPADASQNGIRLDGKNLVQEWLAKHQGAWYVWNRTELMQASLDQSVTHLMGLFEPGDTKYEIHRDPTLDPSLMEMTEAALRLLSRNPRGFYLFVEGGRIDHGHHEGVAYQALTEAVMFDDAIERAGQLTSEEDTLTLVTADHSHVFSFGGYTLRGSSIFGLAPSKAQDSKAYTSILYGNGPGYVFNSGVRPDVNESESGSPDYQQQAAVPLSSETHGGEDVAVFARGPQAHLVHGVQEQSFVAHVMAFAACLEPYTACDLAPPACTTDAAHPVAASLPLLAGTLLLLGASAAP

T4 sequence (P21554 whole entry): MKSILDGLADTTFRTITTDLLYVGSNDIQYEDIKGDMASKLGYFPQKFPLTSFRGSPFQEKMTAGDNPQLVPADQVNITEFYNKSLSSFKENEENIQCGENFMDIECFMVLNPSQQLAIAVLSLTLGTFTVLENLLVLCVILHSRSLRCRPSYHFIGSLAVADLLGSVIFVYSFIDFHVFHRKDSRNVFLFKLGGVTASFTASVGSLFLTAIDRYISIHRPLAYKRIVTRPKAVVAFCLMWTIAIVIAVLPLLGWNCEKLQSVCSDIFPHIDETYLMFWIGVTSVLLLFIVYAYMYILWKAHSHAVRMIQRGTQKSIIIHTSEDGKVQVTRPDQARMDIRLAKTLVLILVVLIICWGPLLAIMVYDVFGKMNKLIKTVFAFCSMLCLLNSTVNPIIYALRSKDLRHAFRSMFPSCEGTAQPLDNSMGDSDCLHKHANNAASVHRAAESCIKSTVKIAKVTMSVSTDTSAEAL
T2 sequence (P34972 whole entry): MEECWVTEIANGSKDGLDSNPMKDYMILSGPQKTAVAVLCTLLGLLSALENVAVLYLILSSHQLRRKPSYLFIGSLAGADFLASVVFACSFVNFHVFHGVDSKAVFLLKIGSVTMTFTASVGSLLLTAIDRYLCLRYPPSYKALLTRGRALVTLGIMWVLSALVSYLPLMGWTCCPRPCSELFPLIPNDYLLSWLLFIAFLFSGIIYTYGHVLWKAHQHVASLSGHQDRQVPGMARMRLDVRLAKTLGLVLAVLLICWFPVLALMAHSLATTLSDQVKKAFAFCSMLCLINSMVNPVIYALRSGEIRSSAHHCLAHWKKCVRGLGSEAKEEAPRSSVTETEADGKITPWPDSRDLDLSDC
T3 sequence (Q9Y2T6 whole entry): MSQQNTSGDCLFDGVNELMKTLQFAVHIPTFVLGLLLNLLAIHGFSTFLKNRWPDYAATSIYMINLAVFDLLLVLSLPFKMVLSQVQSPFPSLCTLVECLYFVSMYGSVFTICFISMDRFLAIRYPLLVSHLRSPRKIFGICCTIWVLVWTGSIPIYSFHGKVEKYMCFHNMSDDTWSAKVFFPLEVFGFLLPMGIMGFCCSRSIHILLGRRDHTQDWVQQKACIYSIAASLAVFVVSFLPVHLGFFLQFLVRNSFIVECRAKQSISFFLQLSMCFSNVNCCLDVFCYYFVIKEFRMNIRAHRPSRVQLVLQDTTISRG
T5 sequence (Q9HC97 whole entry): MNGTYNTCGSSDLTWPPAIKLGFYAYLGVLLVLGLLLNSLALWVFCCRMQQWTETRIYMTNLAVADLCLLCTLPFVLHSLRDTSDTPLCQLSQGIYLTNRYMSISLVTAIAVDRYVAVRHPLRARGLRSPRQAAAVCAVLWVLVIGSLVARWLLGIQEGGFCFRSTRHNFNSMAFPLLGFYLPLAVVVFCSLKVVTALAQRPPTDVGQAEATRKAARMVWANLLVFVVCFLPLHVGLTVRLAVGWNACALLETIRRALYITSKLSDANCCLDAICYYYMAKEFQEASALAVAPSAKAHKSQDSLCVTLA
T6 sequence (P98170 whole entry, the tested form may be a part): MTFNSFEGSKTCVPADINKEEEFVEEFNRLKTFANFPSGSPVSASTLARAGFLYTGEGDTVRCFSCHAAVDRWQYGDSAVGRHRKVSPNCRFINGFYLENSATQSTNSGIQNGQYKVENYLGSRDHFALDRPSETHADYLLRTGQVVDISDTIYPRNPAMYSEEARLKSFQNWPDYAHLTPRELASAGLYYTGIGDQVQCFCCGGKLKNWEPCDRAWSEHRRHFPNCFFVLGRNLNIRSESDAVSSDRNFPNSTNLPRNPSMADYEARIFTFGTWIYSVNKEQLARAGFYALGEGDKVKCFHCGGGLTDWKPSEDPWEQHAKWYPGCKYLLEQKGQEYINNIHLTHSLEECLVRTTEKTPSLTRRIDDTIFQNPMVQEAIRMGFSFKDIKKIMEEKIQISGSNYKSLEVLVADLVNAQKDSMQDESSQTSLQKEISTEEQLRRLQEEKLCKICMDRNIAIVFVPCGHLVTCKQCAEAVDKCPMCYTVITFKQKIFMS
Sequence of SUMO-activating enzyme (Q9UBE0 whole entry): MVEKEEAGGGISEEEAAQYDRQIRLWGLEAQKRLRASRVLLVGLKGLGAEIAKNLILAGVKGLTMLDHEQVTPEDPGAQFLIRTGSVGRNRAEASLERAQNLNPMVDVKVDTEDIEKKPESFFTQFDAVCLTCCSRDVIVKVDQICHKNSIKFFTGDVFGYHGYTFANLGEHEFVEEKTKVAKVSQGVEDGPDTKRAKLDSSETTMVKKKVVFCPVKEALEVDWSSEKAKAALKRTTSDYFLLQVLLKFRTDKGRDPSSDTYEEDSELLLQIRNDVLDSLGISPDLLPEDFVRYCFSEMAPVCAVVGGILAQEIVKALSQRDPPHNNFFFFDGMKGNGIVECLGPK
Sequence of SUMO-activating enzyme (Q9UBT2 whole entry): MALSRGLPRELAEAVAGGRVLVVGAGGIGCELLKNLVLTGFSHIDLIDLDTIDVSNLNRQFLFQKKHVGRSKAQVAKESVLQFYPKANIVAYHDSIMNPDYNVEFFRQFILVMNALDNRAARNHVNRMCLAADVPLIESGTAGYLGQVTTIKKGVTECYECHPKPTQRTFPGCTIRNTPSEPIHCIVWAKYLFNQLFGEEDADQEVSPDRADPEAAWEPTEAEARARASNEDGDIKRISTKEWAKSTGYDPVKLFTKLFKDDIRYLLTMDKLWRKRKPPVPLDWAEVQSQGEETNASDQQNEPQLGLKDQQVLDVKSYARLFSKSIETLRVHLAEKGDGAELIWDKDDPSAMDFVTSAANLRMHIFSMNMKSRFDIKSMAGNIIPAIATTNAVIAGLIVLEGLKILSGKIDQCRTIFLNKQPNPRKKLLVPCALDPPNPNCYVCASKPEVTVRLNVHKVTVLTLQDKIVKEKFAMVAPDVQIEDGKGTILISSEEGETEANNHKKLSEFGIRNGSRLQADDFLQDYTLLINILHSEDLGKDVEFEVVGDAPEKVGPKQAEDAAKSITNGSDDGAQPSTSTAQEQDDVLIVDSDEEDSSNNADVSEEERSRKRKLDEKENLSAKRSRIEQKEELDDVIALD
Sequence of Intestinal-type alkaline phosphatase (Mus musculus, UniProt P24822) (P24822 whole entry): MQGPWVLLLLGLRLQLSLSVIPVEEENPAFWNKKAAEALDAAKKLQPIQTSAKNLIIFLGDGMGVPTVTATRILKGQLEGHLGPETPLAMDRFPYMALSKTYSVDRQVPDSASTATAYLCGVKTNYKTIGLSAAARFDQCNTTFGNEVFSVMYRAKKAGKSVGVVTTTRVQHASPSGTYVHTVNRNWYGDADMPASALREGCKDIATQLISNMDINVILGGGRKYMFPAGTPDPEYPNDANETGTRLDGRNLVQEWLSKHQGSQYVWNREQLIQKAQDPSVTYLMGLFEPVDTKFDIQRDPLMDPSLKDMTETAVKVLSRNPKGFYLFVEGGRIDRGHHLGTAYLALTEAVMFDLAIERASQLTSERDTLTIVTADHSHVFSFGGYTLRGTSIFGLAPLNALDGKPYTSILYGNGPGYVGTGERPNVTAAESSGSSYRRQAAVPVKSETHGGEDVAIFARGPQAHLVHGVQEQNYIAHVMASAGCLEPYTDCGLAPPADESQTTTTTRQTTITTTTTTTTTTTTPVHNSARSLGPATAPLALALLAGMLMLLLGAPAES
Sequence of Albumin (P02769 whole entry): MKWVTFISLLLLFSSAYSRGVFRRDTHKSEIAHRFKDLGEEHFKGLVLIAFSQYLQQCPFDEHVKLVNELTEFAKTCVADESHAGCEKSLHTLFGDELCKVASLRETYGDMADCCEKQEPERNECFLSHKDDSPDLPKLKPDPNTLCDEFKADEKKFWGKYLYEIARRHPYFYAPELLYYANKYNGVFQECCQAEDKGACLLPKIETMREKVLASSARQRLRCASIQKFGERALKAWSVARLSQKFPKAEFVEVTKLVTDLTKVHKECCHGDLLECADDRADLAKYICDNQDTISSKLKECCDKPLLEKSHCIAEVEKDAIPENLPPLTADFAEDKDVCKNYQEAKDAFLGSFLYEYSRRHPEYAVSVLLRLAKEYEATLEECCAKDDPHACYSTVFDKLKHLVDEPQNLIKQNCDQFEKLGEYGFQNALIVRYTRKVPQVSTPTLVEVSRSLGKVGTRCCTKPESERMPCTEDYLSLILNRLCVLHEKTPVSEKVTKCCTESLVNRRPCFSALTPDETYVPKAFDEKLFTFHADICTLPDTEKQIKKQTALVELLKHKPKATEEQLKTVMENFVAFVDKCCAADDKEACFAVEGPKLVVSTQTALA

SMILES: O=C(CN1C(=O)S/C(=C\c2ccccc2)C1=O)NNC(=O)c1ccccc1O
IC50 (Albumin): > 94.1 µM (inactive)
IC50 [1]: > 119 µM (inactive)
IC50 (SUMO-activating enzyme): 38.2 µM (active)
IC50 (Exodeoxyribonuclease V): > 119 µM (inactive)

SMILES: Cc1nc(N2CCN(C(=O)c3ccco3)CC2)c2c3c(sc2n1)CC(C)CC3 (stereo not given)
AC50 [2]: 4.08 µM (active)
IC50 (Cannabinoid receptor 2 [3]): > 32 µM (inactive)
EC50 (Cannabinoid receptor 2 [4]): 28.2 µM (inactive)
IC50 [5]: 0.653 µM (active)
AC50 (INS1): 6.56 µM (active)
IC50 (Cannabinoid receptor 1 [6]): 3.17 µM (active)
IC50 [7]: > 32 µM (inactive)
EC50 (Cannabinoid receptor 1 [8]): > 32 µM (inactive)
EC50 (Cannabinoid receptor 2 [9]): > 32 µM (inactive)
IC50 [10]: 0.342 µM (active)
IC50 (Cannabinoid receptor 1 [11]): > 32 µM (inactive)
AC50 [12]: 2.33 µM (active)
EC50 [13]: > 32 µM (inactive)
IC50 [14]: 0.527 µM (active)
IC50 (Cannabinoid receptor 2 [15]): > 32 µM (inactive)
AC50 [16]: 50.5 µM (active)

IC50 [17]: > 100 µM (inactive)
IC50 [18]: > 100 µM (inactive)
SMILES: CN[C@@H](C)C(=O)NC1CCCN([C@@H](C)C(=O)NC2CCc3ccccc3C2)C1=O (stereo not given in full)

EC50 [19]: 58.7 µM (active)
EC50 [20]: 62.7 µM (active)
EC50 [21]: 60.3 µM (active)
SMILES: Cc1ccc(NS(=O)(=O)c2ccc3nc(O)oc3c2)c(C)c1
